pIC50: −log10 of the molar value. Converted amounts (≈) assume the structure as drawn.
Columns and labels:
Staphylococcus aureus = assay: Antibacterial activity against Staphylococcus aureus MTCC-737 assessed as inhibition of bacterial growth incubated for 24 hrs by two-fold serial dilution assay; format: functional
Calf thymus DNA [1] = assay: Binding affinity to calf thymus DNA assessed as binding constant incubated for 30 mins by fluorescence based EtBr-displacement assay; format: nucleic-acid assay; settings: Bos taurus
Salmonella typhimurium = assay: Antibacterial activity against Salmonella typhimurium MTCC-98 assessed as inhibition of bacterial growth incubated for 24 hrs by two-fold serial dilution assay; format: functional, Salmonella enterica subsp. enterica serovar Typhimurium; settings: Salmonella enterica
Escherichia coli = assay: Antibacterial activity against Escherichia coli MTCC-739 assessed as inhibition of bacterial growth incubated for 24 hrs by two-fold serial dilution assay; format: functional
MCF7 = assay: Cytotoxicity against human MCF7 cells assessed as cell growth inhibition by MTT assay; format: functional, cell-based
A549 = assay: Cytotoxicity against human A549 cells assessed as cell growth inhibition by MTT assay; format: functional, cell-based
[2] = Selectivity ratio of IC50 for cytotoxicity against human HeLa cells under hypoxic condition to IC50 for cytotoxicity against human HeLa cells under aerobic condition; format: functional
P388 [3] = assay: Cytotoxicity against mouse P388 cells assessed as cell growth inhibition by MTT assay; format: functional, cell-based
HeLa [4] = assay: Cytotoxicity against human HeLa cells assessed as cell growth inhibition by MTT assay; format: functional, cell-based
HL-60 = assay: Cytotoxicity against human HL-60 cells assessed as cell growth inhibition by MTT assay; format: functional, cell-based
A-375 [5] = assay: Cytotoxicity against human A-375 cells assessed as cell growth inhibition by MTT assay; format: functional, cell-based
HCT-8 = assay: Cytotoxicity against human HCT-8 cells assessed as cell growth inhibition by MTT assay; format: functional, cell-based
Calf thymus DNA [6] = assay: Binding affinity to calf thymus DNA assessed as binding constant by fluorescence based EtBr-displacement based UV-Vis spectroscopic analysis; format: nucleic-acid assay; settings: Bos taurus
Homo sapiens [7] = species: Homo sapiens; assay: Binding affinity to double stranded [poly(dA-dT)2] DNA (unknown origin) assessed as change in melting temperature in presence of NaCl by thermal denaturation based spectrometer analysis
Homo sapiens [8] = species: Homo sapiens; assay: Binding affinity to double stranded [poly(dA-dT)2] DNA (unknown origin) assessed as change in melting temperature by thermal denaturation based spectrometer analysis
HepG2 = assay: Antiproliferative activity against human HepG2 cells assessed as inhibition of cell growth incubated for 48 hrs by MTT assay; format: functional, cell-based; settings: HepG2, 48 h
SMMC-7721 = assay: Antiproliferative activity against human SMMC-7721 cells assessed as inhibition of cell growth incubated for 48 hrs by MTT assay; format: functional, cell-based; settings: SMMC-7721, 48 h
H22 = assay: Antiproliferative activity against mouse H22 cells assessed as inhibition of cell growth incubated for 48 hrs by MTT assay; format: functional, cell-based; settings: H22, 48 h
Bel-7402 = assay: Antiproliferative activity against human Bel-7402 cells assessed as inhibition of cell growth incubated for 48 hrs by MTT assay; format: functional, cell-based; settings: Bel-7402, 48 h
Homo sapiens [9] = species: Homo sapiens; assay: Binding affinity to double stranded [poly(dG-dC)2] DNA (unknown origin) assessed as equilibrium binding constant by steady-state fluorescence spectroscopic analysis
Salmon testes DNA = assay: Binding affinity to salmon Testis DNA assessed as equilibrium binding constant by steady-state fluorescence spectroscopic analysis; settings: Salmo salar
Homo sapiens [10] = species: Homo sapiens; assay: Binding affinity to double stranded [poly(dA-dT)2] DNA (unknown origin) assessed as equilibrium binding constant by steady-state fluorescence spectroscopic analysis
P388 [11] = assay: Antiproliferative activity against mouse P388 cells assessed as inhibition of cell proliferation by MTT assay; format: functional, cell-based
A-375 [12] = assay: Antiproliferative activity against human A-375 cells assessed as inhibition of cell proliferation by MTT assay; format: functional, cell-based
HeLa [13] = assay: Antiproliferative activity against human HeLa cells assessed as inhibition of cell proliferation by MTT assay; format: functional, cell-based
Calf thymus DNA [14] = assay: Binding affinity to calf thymus DNA assessed as binding constant incubated for 10 mins by isothermal titration calorimetric assay; format: nucleic-acid assay; settings: Bos taurus
Sarcoma-180 [15] = assay: Inhibition of DNA synthesis in mouse Sarcoma-180 cells at 8 uM incubated for 30 mins by [3H]-thymidine incorporation based scintillation counter analysis; format: functional; settings: Sarcoma-180, 0.5 h
Sarcoma-180 [16] = assay: Inhibition of RNA synthesis in mouse Sarcoma-180 cells at 8 uM incubated for 60 mins by [3H]-uridine incorporation based scintillation counter analysis; format: functional; settings: Sarcoma-180, 1 h
Sarcoma-180 [17] = assay: Antitumor activity against mouse Sarcoma-180 cells xenografted in Swiss mouse assessed as T/C ratio at 40 mg/kg, po daily measured upto 7 days; format: functional; settings: time <= 7 day
Ehrlich = assay: Antitumor activity against mouse EAC cell xenografted in Swiss mouse assessed as T/C ratio at 40 mg/kg, po daily measured upto 7 days; format: functional; settings: time <= 7 day

COc1ccc(/C=N/N2C(=O)c3cccc4cccc(c34)C2=O)cc1OC
MIC (Staphylococcus aureus): 62 µg/mL (≈ 172 µM)
Kb (Calf thymus DNA [1]): 2 10^4/M
MIC (Salmonella typhimurium): 62 µg/mL (≈ 172 µM)
MIC (Escherichia coli): 31 µg/mL (≈ 86 µM)

COc1ccc2c(CC(=O)OCCN3C(=O)c4cccc5c(N(C)C)ccc(c45)C3=O)c(C)n(C(=O)c3ccc(Cl)cc3)c2c1
pIC50 (MCF7): 4.86
pIC50 (A549): 4.86
Ratio IC50 [2]: 1.3
pIC50 (P388 [3]): 4.86
pIC50 (HeLa [4]): 4.86
pIC50 (HL-60): 4.86
pIC50 (A-375 [5]): 4.86
pIC50 (HCT-8): 4.86

O=C1c2cccc3c([N+](=O)[O-])ccc(c23)C(=O)N1c1cccc(-c2cc[n+]3c(c2)-c2cccc[n+]2CC3)c1
K (Calf thymus DNA [6]): 6.5 10^6/M
ΔTm (Homo sapiens [7]): 11 °C
ΔTm (Homo sapiens [8]): 23 °C

O=C1c2cccc3cc([N+](=O)[O-])cc(c23)C(=O)N1CCCCN(CCCl)CCCl
pIC50 (HepG2): 5.72
pIC50 (SMMC-7721): 5.72
pIC50 (H22): 5.72
pIC50 (Bel-7402): 5.72

C[n+]1ccc(CCN2C(=O)c3cccc4c(N)ccc(c34)C2=O)cc1
Kb (Homo sapiens [9]): 0.82 10^5/M
Kb (Salmon testes DNA): 1.38 10^5/M
Kb (Homo sapiens [10]): 5.15 10^5/M

CN(C)CCNc1ccc2c3c(cccc13)C(=O)N(c1ccc(S(=O)(=O)NC(=O)c3ccc(N4CCN(CC=C(c5ccccc5)c5ccccc5)CC4)cc3)cc1)C2=O
pIC50 (P388 [11]): 5.17
pIC50 (A-375 [12]): 5.17
pIC50 (HeLa [13]): 5.17

C[n+]1ccn(CCN2C(=O)c3cc(Br)c4c5c(cc(Br)c(c35)C2=O)C(=O)N(CCn2cc[n+](C)c2)C4=O)c1
K (Calf thymus DNA [14]): 9.53 10^6/M

CCN(N=O)C(=O)NCCN1C(=O)c2cccc3cccc(c23)C1=O
inhibition at 8 µM (Sarcoma-180 [15]): 65%
inhibition at 8 µM (Sarcoma-180 [16]): 60%
T/C (Sarcoma-180 [17]): 140%
T/C (Ehrlich): 134%

— ChEMBL document CHEMBL5244223, “l,8-Naphthalimide based DNA intercalators and anticancer agents. A systematic review from 2007 to 2017” (Eur J Med Chem, 2018)
